Reference: PubChem BioAssay (NCI)
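48-hour exposure; five concentrations; linearly interpolated endpoints. Abbreviation: GI50, concentration required for 50% inhibition of growth. At the TGI there is no net growth.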

Experiments:
Test in all cases: NCI tumour cell line growth inhibition, 48 h
[1] = system: HCT-116 colon
[2] = system: SK-OV-3 ovarian
[3] = system: NCI/ADR-RES ovarian
[4] = system: OVCAR-4 ovarian
[5] = system: MDA-MB-435
[6] = system: SK-MEL-2 melanoma
[7] = system: 786-0 renal
[8] = system: NCI-H23 lung
[9] = system: ACHN renal
[10] = system: A549 NSCLC
[11] = system: MCF7 breast
[12] = system: COLO 205 colon
[13] = system: SNB-19 CNS
[14] = system: NCI-H226 lung
[15] = system: CCRF-CEM leukemia
[16] = system: KM12 colon
[17] = system: K-562 leukemia
[18] = system: BT-549 breast
[19] = system: T-47D breast
[20] = system: SW-620 colon
[21] = system: OVCAR-8 ovarian
[22] = system: RXF 393 renal
[23] = system: A498 renal
[24] = system: EKVX NSCLC
[25] = system: NCI-H460 lung
[26] = system: SN12C renal
[27] = system: OVCAR-5 ovarian
[28] = system: NCI-H522 lung
[29] = system: HCT-15 colon
[30] = system: SNB-75 CNS
[31] = system: MDA-MB-231 breast
[32] = system: M14 melanoma
[33] = system: UO-31 renal
[34] = system: CAKI-1 renal
[35] = system: SK-MEL-28 melanoma
[36] = system: LOX IMVI melanoma
[37] = system: HS 578T breast
[38] = system: PC-3 prostate
[39] = system: HCC-2998 colon
[40] = system: UACC-62 melanoma
[41] = system: HOP-62 NSCLC
[42] = system: U251 CNS
[43] = system: SK-MEL-5 melanoma
[44] = system: TK-10 renal
[45] = system: RPMI-8226 leukemia
[46] = system: HT29 colon
[47] = system: SF-268 CNS

Which results are given for `C#Cc1nc(/C=C\CCCCCCC(=O)NO)cs1`?
GI50 [1]: 2.01 µM; TGI [1]: 7.74 µM; GI50 [2]: 2.49 µM; TGI [2]: 7.44 µM; GI50 [3]: 0.861 µM; TGI [3]: 5.83 µM; GI50 [4]: 2.05 µM; TGI [4]: 5.77 µM; GI50 [5]: 2.75 µM; TGI [5]: 11.8 µM; GI50 [6]: 2.72 µM; TGI [6]: 8.53 µM; GI50 [7]: 0.376 µM; TGI [7]: 12.6 µM; GI50 [8]: 0.964 µM; TGI [8]: 2.39 µM; GI50 [9]: 2.33 µM; TGI [9]: 6.46 µM; GI50 [10]: 2.94 µM; TGI [10]: 11.4 µM; GI50 [11]: 2.94 µM; TGI [11]: > 100 µM; GI50 [12]: 1.9 µM; TGI [12]: 3.82 µM; GI50 [13]: 3.99 µM; TGI [13]: 23 µM; GI50 [14]: 2.81 µM; TGI [14]: 9.71 µM; GI50 [15]: 0.329 µM; TGI [15]: 11.6 µM; GI50 [16]: 3.25 µM; TGI [16]: 11.8 µM; GI50 [17]: 2.1 µM; TGI [17]: > 100 µM; GI50 [18]: 4.53 µM; TGI [18]: 42.5 µM; GI50 [19]: 1.62 µM; TGI [19]: 4.24 µM; GI50 [20]: 1.69 µM; TGI [20]: 4.2 µM; GI50 [21]: 2 µM; TGI [21]: 8.77 µM; GI50 [22]: 1.72 µM; TGI [22]: 4.14 µM; GI50 [23]: 1.68 µM; TGI [23]: 3.3 µM; GI50 [24]: 5.23 µM; TGI [24]: > 100 µM; GI50 [25]: 2.72 µM; TGI [25]: 16.4 µM; GI50 [26]: 4.02 µM; TGI [26]: > 100 µM; GI50 [27]: 2.63 µM; TGI [27]: 11.5 µM; GI50 [28]: 0.177 µM; TGI [28]: 0.352 µM; GI50 [29]: 3 µM; TGI [29]: 13.4 µM; GI50 [30]: 1.4 µM; TGI [30]: 4.27 µM; GI50 [31]: 2.59 µM; TGI [31]: 6.25 µM; GI50 [32]: 3.65 µM; TGI [32]: 19.9 µM; GI50 [33]: 0.163 µM; TGI [33]: 0.318 µM; GI50 [34]: 1.82 µM; TGI [34]: 4.27 µM; GI50 [35]: 3.69 µM; TGI [35]: 30.1 µM; TGI [36]: 0.0231 µM; GI50 [37]: 2 µM; TGI [37]: 8.41 µM; GI50 [38]: 3.41 µM; TGI [38]: 20.1 µM; GI50 [39]: 5.58 µM; TGI [39]: 18.1 µM; GI50 [40]: 1.35 µM; TGI [40]: 3.29 µM; GI50 [41]: 2.67 µM; TGI [41]: 11.4 µM; GI50 [42]: 1.86 µM; TGI [42]: 3.96 µM; GI50 [43]: 2.38 µM; TGI [43]: 6.69 µM; GI50 [44]: 1.68 µM; TGI [44]: 6.36 µM; GI50 [45]: 1.54 µM; TGI [45]: 4.96 µM; GI50 [46]: 2.6 µM; TGI [46]: 7.5 µM; GI50 [47]: 2.84 µM; TGI [47]: 7.64 µM
